Measured values as given in ChEMBL document CHEMBL4507311, “Data for DCP probe A-1155463” (2021).
Active and inactive are the calls of the source. The rule behind the calls is not given here.

Tests used:
[1] = target: Glutamate NMDA receptor (Rattus norvegicus) (UniProt P35439+Q00959+Q00960+Q00961+Q62645+Q8VHN2+Q9R1M7); assay: NMDA Eurofins-Cerep binding assay; format: protein-complex assay; parameters: ligand concentration 5 nM; conditions: filed as antagonist, Compound concentration 10.0 uM
[2] = target: Melatonin receptor type 1B (Homo sapiens) (UniProt P49286); assay: MT2 (ML1B) (h) Eurofins-Cerep binding assay; parameters: ligand concentration 0.05 nM; conditions: filed as agonist, Compound concentration 10.0 uM
[3] = target: Cholecystokinin receptor type A (Homo sapiens) (UniProt P32238); assay: CCK1 (CCKA) (h) Eurofins-Cerep binding assay; parameters: ligand concentration 0.08 nM; conditions: filed as agonist, Compound concentration 10.0 uM
MOLT-4 = assay: CellTiter-Glo Luminescent Cell Viability Assay (BCL-XL dependent cell line MOLT-4); format: functional, cell-based; conditions: Homo sapiens
[4] = target: Sodium-dependent dopamine transporter (Homo sapiens) (UniProt Q01959); assay: dopamine transporter (h) Eurofins-Cerep binding assay; parameters: ligand concentration 4 nM; conditions: filed as antagonist, Compound concentration 10.0 uM
Rattus norvegicus = species on record: Rattus norvegicus; assay: SKCa channel Eurofins-Cerep binding assay; parameters: ligand concentration 0.007 nM; conditions: filed as antagonist, Compound concentration 10.0 uM
[5] = target: Acetylcholinesterase (Homo sapiens) (UniProt P22303); assay: Acetylcholinesterase (h) Eurofins-Cerep enzyme and uptake assay; conditions: Compound concentration 10.0 uM
[6] = target: Adenosine receptor A1 (Homo sapiens) (UniProt P30542); assay: A1 (h) Eurofins-Cerep binding assay; parameters: ligand concentration 1 nM; conditions: filed as antagonist, Compound concentration 10.0 uM
[7] = target: T1, Alpha-2A adrenergic receptor (Homo sapiens) (UniProt P08913); assay: Alpha2A (h) Eurofins-Cerep binding assay; parameters: ligand concentration 1 nM; conditions: filed as antagonist, Compound concentration 10.0 uM
T1 sequence (whole entry): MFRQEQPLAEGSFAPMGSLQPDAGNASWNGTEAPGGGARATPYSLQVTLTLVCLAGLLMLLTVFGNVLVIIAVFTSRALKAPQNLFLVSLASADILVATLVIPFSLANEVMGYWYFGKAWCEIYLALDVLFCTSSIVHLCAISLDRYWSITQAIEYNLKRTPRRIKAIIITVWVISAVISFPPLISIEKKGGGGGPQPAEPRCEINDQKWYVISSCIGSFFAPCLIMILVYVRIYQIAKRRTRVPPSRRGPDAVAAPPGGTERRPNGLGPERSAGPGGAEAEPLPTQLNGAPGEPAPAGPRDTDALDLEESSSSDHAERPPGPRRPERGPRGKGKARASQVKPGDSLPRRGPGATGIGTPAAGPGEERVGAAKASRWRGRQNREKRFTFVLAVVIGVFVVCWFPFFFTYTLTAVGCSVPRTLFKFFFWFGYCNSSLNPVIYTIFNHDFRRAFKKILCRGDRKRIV

[8] = target: 5-hydroxytryptamine receptor 1B (Homo sapiens) (UniProt P28222); assay: 5-HT1B(h) Eurofins-Cerep binding assay; parameters: ligand concentration 1 nM; conditions: filed as antagonist, Compound concentration 10.0 uM
[9] = target: L-type Ca2+ channel (diltiazem site, benzothiazepines) (Rattus norvegicus, UniProt P22002+P27732+Q02485); assay: Ca2+ channel (L, diltiazem site) (benzothiazepines) Eurofins-Cerep binding assay; format: protein assay; parameters: incubation time 120 min, incubation temperature RT, ligand concentration 15 nM; conditions: rat cerebral cortex, probe [3H]diltiazem (15 nM), compound concentration 10 uM, read-out: % Inhibition of Control Specific Binding (Mean n=2)
[10] = target: Induced myeloid leukemia cell differentiation protein Mcl-1 (Homo sapiens, UniProt Q07820); assay: Time-resolved fluorescence energy transfer (TR-FRET) with MCL1
[11] = target: Adenosine receptor A2a (Homo sapiens) (UniProt P29274); assay: A2A (h) Eurofins-Cerep binding assay; parameters: ligand concentration 6 nM; conditions: filed as agonist, Compound concentration 10.0 uM
[12] = target: D(1A) dopamine receptor (Homo sapiens) (UniProt P21728); assay: D1 (h) Eurofins-Cerep binding assay; parameters: ligand concentration 0.3 nM; conditions: filed as antagonist, Compound concentration 10.0 uM
[13] = target: Cannabinoid receptor 1 (Homo sapiens) (UniProt P21554); assay: CB1 (h) Eurofins-Cerep binding assay; parameters: ligand concentration 0.5 nM; conditions: filed as agonist, Compound concentration 10.0 uM
[14] = target: Sodium-dependent noradrenaline transporter (Homo sapiens) (UniProt P23975); assay: norepinephrine transporter (h) Eurofins-Cerep binding assay; parameters: ligand concentration 1 nM; conditions: filed as antagonist, Compound concentration 10.0 uM
[15] = target: 5-hydroxytryptamine receptor 2A (Homo sapiens) (UniProt P28223); assay: 5-HT2A (h) Eurofins-Cerep binding assay; parameters: ligand concentration 0.5 nM; conditions: filed as antagonist, Compound concentration 10.0 uM
[16] = target: Calcitonin-gene-related peptide receptor, CALCRL/RAMP1 (Homo sapiens) (UniProt O60894+Q16602); assay: CGRP (h) Eurofins-Cerep binding assay; format: protein-complex assay; parameters: ligand concentration 0.03 nM; conditions: filed as agonist, Compound concentration 10.0 uM
[17] = target: Type-1 angiotensin II receptor (Homo sapiens) (UniProt P30556); assay: AT1 (h) Eurofins-Cerep binding assay; parameters: ligand concentration 0.05 nM; conditions: filed as antagonist, Compound concentration 10.0 uM
[18] = target: Sodium-dependent serotonin transporter (Homo sapiens) (UniProt P31645); assay: 5-HT transporter (h) Eurofins-Cerep binding assay; parameters: ligand concentration 2 nM; conditions: filed as antagonist, Compound concentration 10.0 uM
[19] = target: Alpha-1A adrenergic receptor (Homo sapiens) (UniProt P35348); assay: Alpha1A (h) Eurofins-Cerep binding assay; parameters: ligand concentration 0.1 nM; conditions: filed as antagonist, Compound concentration 10.0 uM
[20] = target: Estrogen receptor (Homo sapiens) (UniProt P03372); assay: Estrogen ER alpha (h) Eurofins-Cerep binding assay; parameters: ligand concentration 0.5 nM; conditions: filed as agonist, Compound concentration 10.0 uM
[21] = target: T2, Muscarinic acetylcholine receptor M2 (Homo sapiens) (UniProt P08172); assay: M2 (h) Eurofins-Cerep binding assay; parameters: ligand concentration 2 nM; conditions: filed as antagonist, Compound concentration 10.0 uM
T2 sequence (whole entry): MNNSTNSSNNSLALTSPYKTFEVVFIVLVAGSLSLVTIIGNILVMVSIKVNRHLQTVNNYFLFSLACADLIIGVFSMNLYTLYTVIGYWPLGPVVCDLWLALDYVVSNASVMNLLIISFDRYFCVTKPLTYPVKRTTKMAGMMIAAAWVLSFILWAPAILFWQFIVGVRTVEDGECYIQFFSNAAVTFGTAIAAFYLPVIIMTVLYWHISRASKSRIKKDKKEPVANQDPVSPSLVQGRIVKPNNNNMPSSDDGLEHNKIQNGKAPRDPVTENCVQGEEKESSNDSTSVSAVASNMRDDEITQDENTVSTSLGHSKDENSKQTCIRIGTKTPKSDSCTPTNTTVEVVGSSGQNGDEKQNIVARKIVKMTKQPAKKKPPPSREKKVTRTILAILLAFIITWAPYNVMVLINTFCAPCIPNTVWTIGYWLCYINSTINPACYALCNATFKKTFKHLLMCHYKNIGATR

[22] = target: Muscarinic acetylcholine receptor M3 (Homo sapiens) (UniProt P20309); assay: M3 (h) Eurofins-Cerep binding assay; parameters: ligand concentration 0.2 nM; conditions: filed as antagonist, Compound concentration 10.0 uM
[23] = target: Glucocorticoid receptor (Homo sapiens) (UniProt P04150); assay: GR (h) Eurofins-Cerep binding assay; parameters: ligand concentration 1.5 nM; conditions: filed as agonist, Compound concentration 10.0 uM
[24] = target: Motilin receptor (Homo sapiens) (UniProt O43193); assay: motilin (h Eurofins-Cerep binding assay; parameters: ligand concentration 0.05 nM; conditions: filed as agonist, Compound concentration 10.0 uM
[25] = target: MAO-B (amine oxidase [flavin-containing] B) (Homo sapiens, UniProt P27338); assay: MAO-B (h) recombinant enzyme Eurofins-Cerep enzyme and uptake assay; parameters: incubation time 60 min, incubation temperature 37°C, substrate/stimulus/tracer D-Luciferin derivative (4 µM); conditions: probe D-Luciferin derivative (4 µM), compound concentration 10 uM, read-out: % Inhibition of Control Values (Mean n=2)
Sequence of MAO-B (amine oxidase [flavin-containing] B) (P27338 whole entry): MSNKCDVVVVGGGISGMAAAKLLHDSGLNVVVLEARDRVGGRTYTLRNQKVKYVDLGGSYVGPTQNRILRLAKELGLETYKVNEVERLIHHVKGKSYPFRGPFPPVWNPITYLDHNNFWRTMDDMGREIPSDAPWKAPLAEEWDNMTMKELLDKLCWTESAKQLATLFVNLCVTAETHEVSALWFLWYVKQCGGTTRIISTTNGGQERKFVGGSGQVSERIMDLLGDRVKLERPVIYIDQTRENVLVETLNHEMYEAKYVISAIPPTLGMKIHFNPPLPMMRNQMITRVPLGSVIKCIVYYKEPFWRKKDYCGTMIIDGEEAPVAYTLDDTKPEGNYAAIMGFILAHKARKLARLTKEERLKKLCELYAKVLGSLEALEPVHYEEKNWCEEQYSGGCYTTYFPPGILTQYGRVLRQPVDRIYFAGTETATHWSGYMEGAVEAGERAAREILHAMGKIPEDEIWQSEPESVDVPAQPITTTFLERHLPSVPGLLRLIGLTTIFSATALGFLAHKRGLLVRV

Sequence of Glucocorticoid receptor (Homo sapiens) (P04150 whole entry): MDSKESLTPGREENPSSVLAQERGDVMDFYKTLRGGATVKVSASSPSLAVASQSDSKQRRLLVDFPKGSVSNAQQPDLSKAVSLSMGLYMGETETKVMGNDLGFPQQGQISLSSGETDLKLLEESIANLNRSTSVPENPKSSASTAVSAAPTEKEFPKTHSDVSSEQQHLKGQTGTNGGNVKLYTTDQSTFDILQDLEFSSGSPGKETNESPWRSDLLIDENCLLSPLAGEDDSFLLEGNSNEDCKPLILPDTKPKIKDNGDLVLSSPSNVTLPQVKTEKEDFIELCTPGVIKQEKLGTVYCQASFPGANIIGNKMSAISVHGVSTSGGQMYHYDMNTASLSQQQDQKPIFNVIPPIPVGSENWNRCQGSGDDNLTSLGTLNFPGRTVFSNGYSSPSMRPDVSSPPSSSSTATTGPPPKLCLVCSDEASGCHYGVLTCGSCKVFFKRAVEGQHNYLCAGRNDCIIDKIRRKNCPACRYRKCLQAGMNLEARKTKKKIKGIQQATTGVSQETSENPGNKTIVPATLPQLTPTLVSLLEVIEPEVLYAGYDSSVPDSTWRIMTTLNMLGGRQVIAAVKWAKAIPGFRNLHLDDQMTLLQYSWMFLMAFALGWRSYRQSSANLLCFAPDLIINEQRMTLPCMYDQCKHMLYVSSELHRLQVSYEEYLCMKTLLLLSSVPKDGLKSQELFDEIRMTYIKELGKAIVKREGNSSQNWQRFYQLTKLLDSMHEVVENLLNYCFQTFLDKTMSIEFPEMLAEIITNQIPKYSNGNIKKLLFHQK
Sequence of Cholecystokinin receptor type A (Homo sapiens) (P32238 whole entry): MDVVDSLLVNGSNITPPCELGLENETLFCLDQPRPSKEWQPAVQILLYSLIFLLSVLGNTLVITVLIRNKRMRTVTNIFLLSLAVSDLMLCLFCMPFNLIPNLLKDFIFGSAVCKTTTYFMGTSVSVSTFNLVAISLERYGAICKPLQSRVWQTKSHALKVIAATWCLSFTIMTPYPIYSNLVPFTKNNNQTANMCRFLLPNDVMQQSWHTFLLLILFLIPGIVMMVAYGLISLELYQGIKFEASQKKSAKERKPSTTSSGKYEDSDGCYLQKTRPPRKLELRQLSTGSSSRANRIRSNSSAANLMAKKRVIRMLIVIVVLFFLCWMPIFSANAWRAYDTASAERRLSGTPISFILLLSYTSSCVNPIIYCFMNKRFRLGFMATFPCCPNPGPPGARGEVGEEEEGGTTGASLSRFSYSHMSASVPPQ
Sequence of Estrogen receptor (Homo sapiens) (P03372 whole entry): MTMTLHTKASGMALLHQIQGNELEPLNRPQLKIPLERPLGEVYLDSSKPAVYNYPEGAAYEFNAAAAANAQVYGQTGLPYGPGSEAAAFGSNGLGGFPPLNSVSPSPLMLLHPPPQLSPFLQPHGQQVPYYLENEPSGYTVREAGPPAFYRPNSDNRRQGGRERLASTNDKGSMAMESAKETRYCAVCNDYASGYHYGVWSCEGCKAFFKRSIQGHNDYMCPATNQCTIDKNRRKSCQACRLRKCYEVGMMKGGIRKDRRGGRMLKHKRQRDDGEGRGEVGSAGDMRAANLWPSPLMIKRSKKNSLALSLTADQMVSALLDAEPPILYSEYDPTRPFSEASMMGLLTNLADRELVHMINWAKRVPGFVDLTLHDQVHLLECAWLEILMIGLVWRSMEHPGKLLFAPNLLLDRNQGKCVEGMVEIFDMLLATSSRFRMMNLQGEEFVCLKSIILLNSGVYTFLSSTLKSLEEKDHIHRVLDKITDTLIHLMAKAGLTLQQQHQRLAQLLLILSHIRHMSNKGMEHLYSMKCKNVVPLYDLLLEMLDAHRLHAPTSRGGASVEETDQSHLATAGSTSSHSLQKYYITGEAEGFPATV
Sequence of 5-hydroxytryptamine receptor 2A (Homo sapiens) (P28223 whole entry): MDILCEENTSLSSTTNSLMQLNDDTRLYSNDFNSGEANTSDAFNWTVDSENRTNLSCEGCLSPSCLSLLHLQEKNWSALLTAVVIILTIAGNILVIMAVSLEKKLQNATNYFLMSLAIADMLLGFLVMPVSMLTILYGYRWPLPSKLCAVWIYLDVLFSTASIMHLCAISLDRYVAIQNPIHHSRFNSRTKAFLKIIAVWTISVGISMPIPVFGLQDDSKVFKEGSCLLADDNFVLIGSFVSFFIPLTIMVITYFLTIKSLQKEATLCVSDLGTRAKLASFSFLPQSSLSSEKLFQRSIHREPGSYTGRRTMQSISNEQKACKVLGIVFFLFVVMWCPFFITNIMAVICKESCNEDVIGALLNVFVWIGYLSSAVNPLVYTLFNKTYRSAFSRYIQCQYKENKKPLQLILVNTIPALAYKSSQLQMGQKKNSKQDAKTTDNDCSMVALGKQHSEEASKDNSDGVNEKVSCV
Sequence of 5-hydroxytryptamine receptor 1B (Homo sapiens) (P28222 whole entry): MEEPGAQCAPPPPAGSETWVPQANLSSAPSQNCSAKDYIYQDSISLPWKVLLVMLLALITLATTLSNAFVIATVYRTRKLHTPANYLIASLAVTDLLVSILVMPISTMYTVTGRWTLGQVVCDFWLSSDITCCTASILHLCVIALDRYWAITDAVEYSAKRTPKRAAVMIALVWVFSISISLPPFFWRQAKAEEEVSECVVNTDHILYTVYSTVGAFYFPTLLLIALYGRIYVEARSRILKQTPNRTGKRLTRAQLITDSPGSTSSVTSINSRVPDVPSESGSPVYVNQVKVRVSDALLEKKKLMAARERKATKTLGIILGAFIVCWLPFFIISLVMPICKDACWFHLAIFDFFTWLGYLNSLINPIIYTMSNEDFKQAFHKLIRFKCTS
Sequence of Sodium-dependent noradrenaline transporter (Homo sapiens) (P23975 whole entry): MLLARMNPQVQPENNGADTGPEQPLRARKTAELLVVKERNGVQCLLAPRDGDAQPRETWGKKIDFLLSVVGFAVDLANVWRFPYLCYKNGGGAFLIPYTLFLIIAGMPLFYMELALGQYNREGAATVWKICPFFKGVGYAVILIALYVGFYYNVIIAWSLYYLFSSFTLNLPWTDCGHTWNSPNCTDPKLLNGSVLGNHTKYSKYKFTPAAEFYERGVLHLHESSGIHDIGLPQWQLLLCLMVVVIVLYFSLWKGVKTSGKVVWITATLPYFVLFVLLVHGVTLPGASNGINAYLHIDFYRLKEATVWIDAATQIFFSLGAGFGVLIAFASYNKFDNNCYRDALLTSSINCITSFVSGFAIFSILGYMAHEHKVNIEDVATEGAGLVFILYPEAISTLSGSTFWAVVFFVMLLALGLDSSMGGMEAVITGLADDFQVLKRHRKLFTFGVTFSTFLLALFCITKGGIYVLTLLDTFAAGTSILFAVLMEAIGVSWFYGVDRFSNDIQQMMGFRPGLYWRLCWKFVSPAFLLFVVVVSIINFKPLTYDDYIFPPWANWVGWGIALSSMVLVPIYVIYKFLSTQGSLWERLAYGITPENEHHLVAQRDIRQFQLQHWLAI
Sequence of Sodium-dependent dopamine transporter (Homo sapiens) (Q01959 whole entry): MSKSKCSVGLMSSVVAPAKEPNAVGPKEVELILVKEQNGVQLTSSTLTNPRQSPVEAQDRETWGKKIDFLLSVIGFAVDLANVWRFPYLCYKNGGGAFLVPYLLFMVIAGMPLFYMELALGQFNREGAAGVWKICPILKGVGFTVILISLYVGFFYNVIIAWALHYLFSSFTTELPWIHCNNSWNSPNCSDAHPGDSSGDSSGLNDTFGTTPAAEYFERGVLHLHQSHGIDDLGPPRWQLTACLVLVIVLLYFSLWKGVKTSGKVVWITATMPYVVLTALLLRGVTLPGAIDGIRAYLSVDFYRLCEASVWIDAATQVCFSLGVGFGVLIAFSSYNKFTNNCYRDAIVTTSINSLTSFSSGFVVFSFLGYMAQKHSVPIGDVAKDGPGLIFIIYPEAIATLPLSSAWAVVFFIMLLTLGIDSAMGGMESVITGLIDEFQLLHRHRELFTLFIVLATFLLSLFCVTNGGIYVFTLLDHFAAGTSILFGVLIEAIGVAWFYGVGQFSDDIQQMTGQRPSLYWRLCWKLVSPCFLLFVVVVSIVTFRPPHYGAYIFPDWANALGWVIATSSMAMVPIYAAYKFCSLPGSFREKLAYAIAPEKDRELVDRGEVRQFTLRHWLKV
Sequence of Induced myeloid leukemia cell differentiation protein Mcl-1 (Q07820 whole entry): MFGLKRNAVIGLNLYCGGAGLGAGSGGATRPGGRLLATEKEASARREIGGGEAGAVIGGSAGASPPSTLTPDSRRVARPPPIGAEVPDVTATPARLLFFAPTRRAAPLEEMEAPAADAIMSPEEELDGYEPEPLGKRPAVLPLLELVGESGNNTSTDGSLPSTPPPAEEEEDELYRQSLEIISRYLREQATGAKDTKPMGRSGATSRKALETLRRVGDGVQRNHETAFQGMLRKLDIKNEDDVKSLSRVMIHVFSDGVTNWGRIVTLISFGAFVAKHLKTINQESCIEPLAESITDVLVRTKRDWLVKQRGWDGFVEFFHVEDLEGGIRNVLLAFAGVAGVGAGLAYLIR

| Structure (SMILES) | % Inhibition of Control Specific Binding (Mean n=2) [1] [%] | % Inhibition of Control Specific Binding (Mean n=2) [2] [%] | % Inhibition of Control Specific Binding (Mean n=2) [3] [%] | EC50 (MOLT-4) | % Inhibition of Control Specific Binding (Mean n=2) [4] [%] | % Inhibition of Control Specific Binding (Mean n=2) (Rattus norvegicus) [%] | % Inhibition of Control Values (Mean n=2) [5] [%] | % Inhibition of Control Specific Binding (Mean n=2) [6] [%] | % Inhibition of Control Specific Binding (Mean n=2) [7] [%] | % Inhibition of Control Specific Binding (Mean n=2) [8] [%] | inhibition at 120 min, 10 µM [9] [%] | IC50 [10] | % Inhibition of Control Specific Binding (Mean n=2) [11] [%] | % Inhibition of Control Specific Binding (Mean n=2) [12] [%] | % Inhibition of Control Specific Binding (Mean n=2) [13] [%] | % Inhibition of Control Specific Binding (Mean n=2) [14] [%] | % Inhibition of Control Specific Binding (Mean n=2) [15] [%] | % Inhibition of Control Specific Binding (Mean n=2) [16] [%] | % Inhibition of Control Specific Binding (Mean n=2) [17] [%] | % Inhibition of Control Specific Binding (Mean n=2) [18] [%] | also measured |
| --- | --- | --- | --- | --- | --- | --- | --- | --- | --- | --- | --- | --- | --- | --- | --- | --- | --- | --- | --- | --- | --- |
| CN(C)CC#Cc1ccc(OCCCc2sc(N3CCc4cccc(C(=O)Nc5nc6ccccc6s5)c4C3)nc2C(=O)O)c(F)c1 [A-1155463] | 21.6 | 20.1 | 98.9 | 0.214 µM (active) | 31.6 | -3.7 | 7.1 | 60.6 | 12.1 | -7.1 | 10.8 | 14 µM (not active) | 51.8 | 26.2 | 2.6 | 20.9 | 44.3 | -6.8 | 20.5 | 8.5 | % Inhibition of Control Specific Binding (Mean n=2) [19]: 6.7%; % Inhibition of Control Specific Binding (Mean n=2) [20]: 11.9%; % Inhibition of Control Specific Binding (Mean n=2) [21]: 28.6%; % Inhibition of Control Specific Binding (Mean n=2) [22]: 17.4%; % Inhibition of Control Specific Binding (Mean n=2) [23]: 37.8%; % Inhibition of Control Specific Binding (Mean n=2) [24]: -21.6%; inhibition at 60 min, 10 µM [25]: -2.2% |
| O=C(Nc1nc2ccccc2s1)c1cccc2c1CN(c1nc(C(=O)O)c(CCOc3ccc(-n4ncc5cncnc54)cc3)s1)CC2 [A-1107969] | 7.8 | 8.7 | 68.9 | > 10 µM (not active) | 3.6 | -12.2 | 14.5 | 7.9 | 1.9 | -39.6 | 16.2 | 2 µM (not active) | 28.3 | 3.5 | -4.1 | -4 | -0.6 | -9.4 | -3.5 | -2.3 | % Inhibition of Control Specific Binding (Mean n=2) [19]: -6.1%; % Inhibition of Control Specific Binding (Mean n=2) [20]: 8.4%; % Inhibition of Control Specific Binding (Mean n=2) [21]: -7.3%; % Inhibition of Control Specific Binding (Mean n=2) [22]: -4.4%; % Inhibition of Control Specific Binding (Mean n=2) [23]: 55.4%; % Inhibition of Control Specific Binding (Mean n=2) [24]: 2.2%; inhibition at 60 min, 10 µM [25]: -2% |
